Results published in ChEMBL document CHEMBL3286309, “4,5-Di-substituted benzyl-imidazol-2-substituted amines as the structure template for the design and synthesis of reversal agents against P-gp-mediated multidrug resistance breast cancer cells” (Eur J Med Chem, 2014).

What was measured:
[1] = system: L929; assay: Cytotoxicity against mouse L929 cells after 3 days by MTS assay; assay type: cell-based; conditions: L929, 72 h
[2] = Cytotoxicity against human MDA435/LCC6MDR cells after 3 days by MTS assay; assay type: ADME, cell-based; conditions: 72 h
[3] = Cytotoxicity against human MDA435/LCC6 cells after 3 days by MTS assay; assay type: cell-based; conditions: MDA-435/LCC6, 72 h
[4] = Cytotoxicity against human MDA435/LCC6 cells after 5 days by MTS assay; assay type: functional, cell-based; conditions: MDA-435/LCC6, 120 h
[5] = Cytotoxicity against human MDA435/LCC6MDR cells after 5 days by MTS assay; assay type: functional, cell-based; conditions: 120 h

Compound	IC50 [1]	IC50 [2]	IC50 [3]	IC50 [4]	IC50 [5]
CCN(CC)c1ccc(Cc2c(Cc3ccc(OC)c(OC)c3)nc(NC(=O)c3cc(OC)c(OC)c(OC)c3)n2C)cc1	47.4 µM	38.3 µM	45.2 µM	–	–
CC(=O)O[C@H]1C(=O)[C@@]2(C)[C@H]([C@H](OC(=O)c3ccccc3)[C@]3(O)C[C@H](OC(=O)[C@H](O)[C@@H](NC(=O)c4ccccc4)c4ccccc4)C(C)=C1C3(C)C)[C@]1(OC(C)=O)CO[C@@H]1C[C@@H]2O [PACLITAXEL]	–	–	–	0.0026 µM	0.149 µM
CCN(CC)c1ccc(Cc2c(Cc3ccc(OC)c(OC)c3)nc(N(C(=O)/C=C/c3cc(OC)c(OC)c(OC)c3)C(=O)/C=C/c3cc(OC)c(OC)c(OC)c3)n2C)cc1	18.2 µM	9.1 µM	13.7 µM	–	–
